Patent US10328018B2, “Cosmetic use of the essential oil of Laserpitium siler L. against the signs of aging of the skin and as a skin antioxidant” (L'OREAL, priority 2012, dated 2019)
Marks after values point to notes of the source that are not given here.

What was measured:
type I procollagen = test: Synthesis/secretion of type I procollagen by ELISA (CICP) on NHDF dermal fibroblasts; assay type: cell-based, human; details: 100 μM, 72 h, control without treatment=100%
Experimental: The study consists in evaluating, on NHDF (Normal Human Dermal Fibroblasts) dermal fibroblasts, the effects of the essential oil of […]. of example 1, at two concentrations, over the following parameters: • the synthesis of type I procollagen by ELISA (CICP, Cross-linked C-telopeptides of Type I collagen) after 72 h of contact, and • the abundance of MMP-1 secreted in the culture medium after 72 h of contact. The study was carried out on NHDF human dermal fibroblasts (ATCC, CRL-2522, origin: foreskin) cultured in monolayer in a medium of DMEM (Invitrogen, 31885-049) and antibiotics (penicillin/streptomycin, Invitrogen, 15140-122), and cultured in serum-free medium for studies on type I collagen and on MMP-1. The fibroblasts were seeded in 24-well plates, 24 h before the treatment with the test and reference elements. For the measurement of the synthesis/secretion of type I procollagen and for the quantification of MMP-1, the test elements and also the reference elements (TGF-β1 (Transforming Growth Factor-β1) for MMP-1 and vitamin C for CICP) were applied for 72 h in the absence of serum. The supernatants of the cultures were harvested after 72 h of treatment with the active agents and the reference element (in this case, vitamin C at 1000 μM). These were frozen at -20° C. until the day of the analysis. […]

MMP-1 = test: Abundance of MMP-1 secreted in culture medium of NHDF dermal fibroblasts (pro-MMP-1 ELISA); assay type: cell-based, human; details: 2.5 ng/ml, 72 h, control without treatment=100%
Experimental: The study consists in evaluating, on NHDF (Normal Human Dermal Fibroblasts) dermal fibroblasts, the effects of the essential oil of Laserpitium Siler L. of example 1, at two concentrations, over the following parameters: • the synthesis of type I procollagen by ELISA (CICP, Cross-linked C-telopeptides of Type I collagen) after 72 h of contact, and • the abundance of MMP-1 secreted in the culture medium after 72 h of contact.
The study was carried out on NHDF human dermal fibroblasts (ATCC, CRL-2522, origin: foreskin) cultured in monolayer in a medium of DMEM (Invitrogen, 31885-049) and antibiotics (penicillin/streptomycin, Invitrogen, 15140-122), and cultured in serum-free medium for studies on type I collagen and on MMP-1.
The fibroblasts were seeded in 24-well plates, 24 h before the treatment with the test and reference elements.
For the measurement of the synthesis/secretion of type I procollagen and for the quantification of MMP-1, the test elements and also the reference elements (TGF-β1 (Transforming Growth Factor-β1) for MMP-1 and vitamin C for CICP) were applied for 72 h in the absence of serum. […]
The quantification of MMP-1 was carried out with a specific kit (Human pro-MMP-1 Quantikine ELISA, R&D System), according to the instructions given by the supplier.

Collagen IV = test: Production of collagen IV by normal human keratinocytes (in situ immunolabeling, image analysis); assay type: cell-based; details: TGF-β at 10 ng/ml, NHEK, 72 hours
Experimental: The purpose of this study was to evaluate the effects of the essential oil of Laserpitium Siler L. according to example 1 on the dermo-epidermal junction marker (Coll. IV) modulated during aging by immunohistochemistry techniques.
• Culture medium: Keratinocyte-SFM supplemented with: • Epidermal Growth Factor (EGF) 0.25 ng/ml • Pituitary extract (PE) 25 μg/ml • Gentamicin 25 μg/ml • Test medium: Keratinocyte-SFM supplemented with: • Gentamicin 25 μg/ml
Normal human keratinocytes (NHEK—Ref: K341) were seeded and cultured in a culture medium (Keratinocyte-SFM for 24 hours). The culture medium was replaced by the test medium containing, or not containing (control), the test compounds or reference compounds (TGF-β at 10 ng/ml), then the cells were incubated for 72 hours at 37° C., 5% CO2.
After incubation, the culture medium was removed and the cells were rinsed, fixed and permeabilized.
The cells were then labeled with the primary antibody targeted against the protein of interest (Collagen IV).
The relative quantification was carried out by image analysis after in situ immuno labeling.
The image acquisition was carried out with a high-resolution imaging system: INCell Analyser™ 1000.

O=C1O[C@H]([C@@H](O)CO)C(O)=C1O [Vitamin C]
CICP (protein abundance) (type I procollagen): 160%***

TGF-β1: Transforming Growth Factor-β1, reference element for MMP-1
MMP-1 (protein abundance) (MMP-1): 47%***

TGF-β: positive control / reference compound at 10 ng/ml in the collagen IV test
increase in expression of collagen IV compared to the control (Collagen IV): 594%
